Values quoted from earlier work as cited in patent publication US20260114445A1, “STABLE ANTIMICROBIAL FORMULATION CONCENTRATE” (Kimberly-Clark Worldwide, Inc., priority 2020, published 2026).

Conditions: temperature not given

Question: Which water solubility does the source give for `CCCCCCCC(=O)NO` [Caprylhydroxamic Acid] here?
Answer: approximately 0.14%
